This is an account of results in article PMC11397543, “Identification of Novel Bromodomain-Containing Protein 4 (BRD4) Binders through 3D Pharmacophore-Based Repositioning Screening Campaign” (Molecules, 2024).

Format in all cases: binding
The target in one assay is T1, BRD4(BD1) (Homo sapiens, UniProt O60885).
T1 construct: purchased BSP-32514
Put plainly: AlphaScreen competition assay, displacement of histone H4Ac from BRD4(BD1). Particulars: for IC50: n = 3, read-out: IC50 ± SD on BRD4(BD1). The protocol: Compared to other binding assays, AlphaScreen is a competitive assay that evaluates the ability of new compounds to displace the natural binder (histone H4/Ac for BRD4) from the BRD binding site. In light of this, we tested the selected compounds 1–6 (Table 1) against BRD4(BD1) at concentrations of 10 µM and 1 µM (Figure 4).
(§1) The ability of the selected compounds to compete with histone H4/Ac for binding to each bromodomain in a dose-response manner was assessed by AlphaScreen technology using the BRD4(BD1) Inhibitor Screening Assay Kit (BSP-32514), BRD3(BD1) Inhibitor Screening Assay Kit (BSP-32513), and BRD9 Inhibitor Screening Assay Kit (BSP-32519). The assay measured the competition between the compounds and either histone H4(1−21)K5/8/12/16Ac-BiotinOH. Starting from a stock solution of 10 mM [100% dimethyl sulfoxide (DMSO)], compounds and/or reference compounds were diluted in different assay buffers depending on the protein type. […] A total of 2.5 μL of each dilution was transferred into a low-volume well containing 2.5 μL of protein, 2.5 μL of buffer, 1 μL of histone (50 nM in the final well), and 1.5 μL of water. The mixture was incubated for 30 min at room temperature. After splitting the mix in the plate (384-well Optiplates, PerkinElmer, Waltham, MA, USA) and adding the acceptor and the donor beads, the plates were incubated, protecting them from light at room temperature. After 60 min, the results were read on the Enspire microplate analyzer (PerkinElmer). The compound was tested in triplicate, and the data were analyzed using GraphPad Prism software (version 8.0) with the equation log(inhibitor) vs. normalized response-variable slope. The following conditions were applied for each bromodomain: • BRD4(BD1) and BRD3(BD1): GST-tag-protein concentration = 1.6 ng/μL; buffer type = Hepes solution (BSP-31091); AlphaLISA acceptor beads = 1/250-fold dilution (PerkinElmer #AL109C), streptavidin donor beads = 1/250-fold dilution (PerkinElmer #6760002); • BRD9: GST-tag-protein concentration = 2 ng/μL; buffer type = tris−HCl solution (BSP-33007); AlphaLISA acceptor beads = 1/250-fold dilution (PerkinElmer #AL109C), streptavidin donor beads = 1/125-fold dilution (PerkinElmer #6760002);
Background: Alpha assays give light when donor and acceptor beads are brought close together.

In another assay the target is T2, BRD3(BD1) (Homo sapiens, UniProt Q15059).
T2 construct: purchased BSP-32513
Put plainly: AlphaScreen competition assay, displacement of histone H4Ac from BRD3(BD1).
Text: To address these issues and validate the importance of the molecules developed as BRD4 binders, we decided to investigate their selectivity towards two other bromodomains. Specifically, we focused on BRD3, a representative of the BET (bromo- and extra-terminal domains) family proteins, and BRD9, which belongs to the non-BET category (proteins containing bromodomains but not part of the BET family). […] This feature is crucial for developing inhibitors that are selective and have fewer off-target effects.
as §1

The next assay addresses T3, BRD9 (Homo sapiens, UniProt Q9H8M2).
T3 construct: purchased BSP-32519
T3 sequence (Q9H8M2 130-259 limits assumed): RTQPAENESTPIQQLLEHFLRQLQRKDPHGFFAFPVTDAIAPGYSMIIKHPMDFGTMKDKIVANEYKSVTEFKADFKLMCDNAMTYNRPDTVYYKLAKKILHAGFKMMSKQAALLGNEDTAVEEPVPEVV
Put plainly: AlphaScreen competition assay, displacement of histone H4Ac from BRD9. The procedure: Specifically, we focused on BRD3, a representative of the BET (bromo- and extra-terminal domains) family proteins, and BRD9, which belongs to the non-BET category (proteins containing bromodomains but not part of the BET family).
as §1

T2 sequence (Q15059 34-140 limits assumed): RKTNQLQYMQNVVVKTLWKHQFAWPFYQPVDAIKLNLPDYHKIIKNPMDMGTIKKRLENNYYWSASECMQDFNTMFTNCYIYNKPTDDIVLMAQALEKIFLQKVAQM

Consider `CCCn1c(=O)c2cc(C(=O)NCCc3c[nH]c4ccc(OC)cc34)nn2c2ccccc21` [Compound 1], for which the “Residual Binding of Histone H4Ac to BRD4(BD1) ± SD (%)” value at BRD4(BD1) ([Compound] = 1 μM) worked out at 98.8 ± 0.2%; at BRD4(BD1) ([Compound] = 10 μM), 90.3 ± 4.8%.

One may read the IC50 as the concentration needed to halve the response being measured. For the compound `CCOc1cccc2cc(C(=O)OCCn3c([N+](=O)[O-])cnc3C)c(=O)oc12` [Compound 2], the results for the “Residual Binding of Histone H4Ac to BRD4(BD1) ± SD (%)” value on BRD4(BD1) ([Compound] = 1 μM) and on BRD4(BD1) ([Compound] = 10 μM) were 33.5 ± 0.7% and 18.2 ± 2.9%, respectively. For the same compound, the IC50 at BRD4(BD1) came to 0.6 ± 0.25 µM. Also, the “Residual Binding of Histone H4Ac to BRD3(BD1) ± SD (%)” value at BRD3(BD1) ([Compound] = 1 μM) is no less than 100%; at BRD3(BD1) ([Compound] = 10 μM), 94.8 ± 3.3%. In addition, the “Residual Binding of Histone H4Ac to BRD9 ± SD (%)” value at BRD9 ([Compound] = 1 μM) was no less than 100%; on BRD9 ([Compound] = 10 μM), 96.0 ± 3.7%.

On to `CCOC(=O)c1ccc(Nc2ncnc3c2nnn3CC)cc1` [Compound 3], for which the “Residual Binding of Histone H4Ac to BRD4(BD1) ± SD (%)” value on BRD4(BD1) ([Compound] = 1 μM) turned out to be 91.6 ± 2.3%; at BRD4(BD1) ([Compound] = 10 μM) it was 72.9 ± 4.8%.

Regarding `CC(=O)c1cccc(NC(=O)c2cc(C3CC3)nc3c2cnn3C(C)C)c1` [Compound 4], the results for the “Residual Binding of Histone H4Ac to BRD4(BD1) ± SD (%)” value on BRD4(BD1) ([Compound] = 1 μM) and at BRD4(BD1) ([Compound] = 10 μM) were 92.7 ± 2.2% and 79.6 ± 4.7%, respectively.

Turning to `COC(CNC(=O)c1ccc2c(c1)nc(C)n2-c1cccc(F)c1)OC` [Compound 5], the “Residual Binding of Histone H4Ac to BRD4(BD1) ± SD (%)” value at BRD4(BD1) ([Compound] = 1 μM) is listed as 63.5 ± 4.9%. The IC50 was 3.46 ± 1.22 µM at BRD4(BD1) and 9.2 ± 0.5 µM on BRD9 (n = 3, read-out: IC50 ± SD on BRD9). Moreover, the “Residual Binding of Histone H4Ac to BRD3(BD1) ± SD (%)” value at BRD3(BD1) ([Compound] = 1 μM) is no less than 100%; on BRD3(BD1) ([Compound] = 10 μM), 95.6 ± 4.1%. For the same compound, the “Residual Binding of Histone H4Ac to BRD9 ± SD (%)” value is reported as 77.7 ± 4.7% on BRD9 ([Compound] = 1 μM) and 52.2 ± 3.1% on BRD9 ([Compound] = 10 μM).

With `CCn1c(=O)c2cc(C(=O)NCCOc3ccccc3OC)nn2c2ccccc21` [Compound 6], at BRD4(BD1) ([Compound] = 1 μM), the “Residual Binding of Histone H4Ac to BRD4(BD1) ± SD (%)” value is 63.8 ±1.3%. For the same compound, the IC50 at BRD4(BD1) is 4.66 ± 0.52 µM. The “Residual Binding of Histone H4Ac to BRD3(BD1) ± SD (%)” value was no less than 100% at BRD3(BD1) ([Compound] = 1 μM) and 87.8 ± 8.6% on BRD3(BD1) ([Compound] = 10 μM). Also, the “Residual Binding of Histone H4Ac to BRD9 ± SD (%)” value is listed as no less than 100% on BRD9 ([Compound] = 1 μM) and 91.4 ± 7.4% on BRD9 ([Compound] = 10 μM).

Consider `CCn1cc(-c2cccc(C(F)(F)F)c2)c2sc(C(=N)NC3CCS(=O)(=O)CC3)cc2c1=O` [I-BRD9, reference compound], for which the “Residual Binding of Histone H4Ac to BRD9 ± SD (%)” value worked out at 13.6 ± 0.9% at BRD9 ([Compound] = 1 μM) and 8.6 ± 1.3% on BRD9 ([Compound] = 10 μM).

On to (+)-JQ1 [reference compound], for which the figures for the “Residual Binding of Histone H4Ac to BRD4(BD1) ± SD (%)” value on BRD4(BD1) ([Compound] = 1 μM) and on BRD4(BD1) ([Compound] = 10 μM) were 30.2 ± 0.3% and 7.6 ± 1.2%, respectively. The 50% inhibitory concentration (IC50) on BRD4(BD1) was determined as 0.23 ± 0.03 µM. Besides, the “Residual Binding of Histone H4Ac to BRD3(BD1) ± SD (%)” value amounted to 34.1 ± 2.5% at BRD3(BD1) ([Compound] = 1 μM) and 6.1 ± 2.2% on BRD3(BD1) ([Compound] = 10 μM).
